In patent publication US4895937A, “5-ioso-2-pyrimidinone nucleoside” (The Research Foundation of State University of New York, priority 1988, dated 1990):
Like-named read-outs stand apart in the source and are kept apart here.

Tests used:
HSV-2 = assay: Viral inhibition, HSV-2 (Example 7, method of Example 5); type: cell-based, herpes simplex type 2; conditions: Human alphaherpesvirus 2
Procedure: (§1) In accordance with the present invention, 1-(2-Deoxy-β-D-ribofuranosyl)-5-(methylmercapto)-2-pyrimidinone is prepared essentially in accordance with the procedure set forth in "Snythesis and Antiviral Activity of 1-(2-Deoxy-β-D-ribofuranosyl)-5-(methylmercapto)-2-pyrimidinone" by Schroeder and Bardos and Cheng, Volume 24, page 109, January 1981. HeLa cells were infected in 1640 RPMI medium with herpes simplex type 1 (HSV-1) and independently with herpes simplex type 2 (HSV-2) virus at a multiplicity of 5 to 10 plaque forming units per cell. The composition of 1640 RPMI medium is reported in "Biological Activity of 5 Ethyl, 5 Propyl, and 5 Vinyl 2'-Deoxyuridine" by Cheng et al published in Antimicrobial Agents and Chemotherapy, Volume 10, beginning at page 119 (1976). 1640 RPMI medium is commercially available from Gibco Company, Grand Island, N.Y. After 1 hour, virus absorption, the drugs were added. Resulting cultures were analyzed for virus titer at 24 hours post infection a described in the procedure set forth in "Biological Activity of 5-Ethyl, 5-Propyl and 5-Vinyl 2'-uridine" by Cheng et al. The results are set forth in Table 2. The numbers set forth in Table 2 show the number of plaque forming units in the control which contained no methylmercapto compound and the number of units at concentrations of 100, 200 and 400 micromoles of the methylmercapto compound. The results clearly indicate substantial decrease in the number of plaque forming units in the presence of 1-(2-Deoxy-β-D-ribofuranosyl)-5-(methylmercapto)-2-pyrimidinone.
(§2) The above described methyl compound was tested for viral inhibition substantially in accordance with the method of Example 5 except that the concentrations were 50 and 100 micromolar.

HSV-1 = assay: Viral inhibition, HSV-1 (Example 7, method of Example 5); type: cell-based, herpes simplex type 1; conditions: Human alphaherpesvirus 1
Procedure: as §1, §2

murine leukemia L 1210 = conditions: cited from earlier work
virus = conditions: literature; cited from earlier work
[1] = test system: BVdU resistant strain of HSV-1; assay: Antiherpes activity, BVdU resistant strain (Example 10); type: cell-based; conditions: Human alphaherpesvirus 1, read-out: plaque-forming units as % of control
Procedure: (§3) IPdR and 5-bromo-2-pyrimidinone-2-deoxyribonucleoside (BrPdR) were tested for antiherpes activity according to procedures described by Cheng, Y.-C., et al. Antimicrob. Agents Chemother (1976) 10, 119.

[2] = test system: ACG (Tr7), acyclovir resistant strain of HSV1; assay: Antiherpes activity, acyclovir resistant strain of HSV1 (Tr7) (Example 10); type: cell-based, HSV-1; conditions: Human alphaherpesvirus 1, read-out: plaque-forming units as % of control
Procedure: as §3

HSV-1 (KOS) = assay: Antiherpes activity, HSV-1 (KOS) (Example 10); type: cell-based
Procedure: as §3

PFA-resistant strains = assay: Antiherpes activity, PFA-resistant strain (Example 10); type: cell-based; conditions: 5 μM; read-out: plaque-forming units as % of control
Procedure: as §3

HSV-1 (CLl0l) = assay: Antiherpes activity, HSV-1 (CLl0l) (Example 10); type: cell-based
Procedure: as §3

[3] = test system: ACG (S1), acyclovir resistant strain of HSV1; assay: Antiherpes activity, acyclovir resistant strain of HSV1 (S1) (Example 10); type: cell-based, HSV-1; conditions: Human alphaherpesvirus 1, read-out: plaque-forming units as % of control
Procedure: as §3

HSV-2 (333) = assay: Antiherpes activity, HSV-2 (333) (Example 10); type: cell-based
Procedure: as §3

[4] = test system: HSV-1 and HSV-2 strains (herpes virus group); assay: Antiherpes activity, overall statement; type: cell-based
Procedure: as §3

HSV-2 (CEU-G) = assay: Antiherpes activity, HSV-2 (CEU-G) (Example 10); type: cell-based; conditions: Human alphaherpesvirus 2, read-out: plaque-forming units as % of control
Procedure: as §3

HSV-2 (Strain 333) [5] = assay: Antiviral activity in HSV-2 infected mice by various routes (Example 9); type: in vivo, Swiss-Webster female mice; conditions: for % ILS: excluding 45 day survivors
Procedure: The drugs were administered once a day for five days or twice daily (12 hour intervals) for 2.5 days beginning 24 hours postinfection. Mean body weight determinations of drug treated and control animals were made during the treatment period as an indicator of sublethal toxicity. Deaths were recorded through day 45.

host cell = conditions: literature, Oftebro et al., Oyen et al.; cited from earlier work
[6] = test system: human nasopharyngeal carcinoma KB cells; assay: Cytotoxicity / cell proliferation in KB cells (Example 8 Part B); type: cell-based
Procedure: (§4) To compare the toxicity of FPdR and IPdR human nasopharyngeal carcinoma KB cells obtained from the American Type Culture Collection were maintained as a monolayer in RPMI 1640 supplemented with 5% fetal bovine serum, 10 mM HEPES buffer (pH 7.4) and karamycin (100 μg/ml). Cells were maintained at 37° C. in a humidified atmosphere of 5% CO2 in air. Cell numbers were determined with an electronic particle counter (Particle Data, Inc., Elmhurst, Ill.).
(§5) For determination of drug effect on cell proliferation, cells were harvested from rapidly proliferting cultures by treatment with pancreation. Cell number was determined and plated in 24 well (6 mm well diameter) plates at a concentratin of 5×10^3 cells/ml. Drug exposures were initiated by a complete change of medium after overnight incubation. Following a 72 hour drug exposure […]. of thiazolyl blue was added and incubated for a further 4 hour period. The media from the plates was aspirated completely and […] DMSO was added to each well. The plates were placed on a shaker for 5 minutes and the blue solution transferred to 96 well plates and read at 540 nm with a scanning multiwell spectrophotometer (Biotek Instruments, Inc. Burlington, Vt.).

[7] = as above; type: cell-based, human; conditions: human, kb cells, 72 hour exposure
Procedure: as §4, §5

HSV-2 (strain 333) [8] = assay: Antiviral activity, HSV-2 plaque reduction (Example 8 Part A); type: cell-based
Procedure: The effects of 1-(2-Deoxy-β-D-ribofuranosyl)-5-iodo-2-pyrimidinone (IPdR) of Example 3 were compared with 1-(2-Deoxy-β-D-ribofuranosyl)-5-fluoro-2-pyrimidinone (FPdR) on HSV-2 (strain 333) in […]. Twenty four well plates (sterile) were plated with 10^6 Vero cells/well the day before infecting. 250 PFU of HSV-2 were used in each well. The test compounds, IPdR and FPdR, were added at zero times of post infection and the cultures incubated at 37° C. for 48 hours. At the end of the incubation period the media was removed from Vero cells. Plates were strained with 0.8% crystal violet in 50% ethanol for 15 minutes. The plaque was counted.

bone marrow = conditions: cited from earlier work
[9] = intravenous injection; cited from earlier work
[10] = test system: herpatic lesions of the skin; conditions: topical; cited from earlier work
nucleotidases = conditions: systemic administration; cited from earlier work
[11] = 50 micromolar, vs untreated control
[12] = Human alphaherpesvirus 1, 5 μM, read-out: plaque-forming units as % of control
[13] = Human alphaherpesvirus 1, read-out: plaque-forming units as % of control
[14] = 40 mg/kg oral, 2 × 21/2, 72 hours after implant
[15] = 40 mg/kg oral, 2 × 21/2, innoculation dose 1 × 10^6 PFU

Molecule `Cc1cnc(=O)n(C2C[C@H](O)[C@@H](CO)O2)c1` (stereo in doubt) [methyl compound, 1-(2-Deoxy-α-D-ribofuranosyl)-5-(methyl)-2-pyrimidinone] has an inhibition at 50 µM (HSV-2; [11]) of 87.9%, an inhibition at 100 µM (HSV-2; 100 micromolar) of 98.3% and an inhibition at 50 µM (HSV-1; [11]) of 95.5%. It also gave an inhibition at 100 µM (HSV-1; 100 micromolar) of 99%.
For `O=c1ncc(Br)cn1[C@@H]1O[C@H](CO)[C@@H](O)[C@H]1O` [5-bromo], the “anti-tumor activity” value (murine leukemia L 1210) is given as “lack of anti-tumor activity”.
In the case of `O=c1ncc(Cl)cn1[C@@H]1O[C@H](CO)[C@@H](O)[C@H]1O` [5-chloro], the “anti-tumor activity” value (murine leukemia L 1210) is listed as “lack of anti-tumor activity”.
In the case of `O=c1ncc(F)cn1[C@@H]1O[C@H](CO)[C@@H](O)[C@H]1O` [5-fluoro riboside, 5-fluoro-pyrimidin-2-one riboside], the “anti-tumor activity” value (murine leukemia L 1210) is given as “only the 5-fluoro was active” and the “anti-viral activity” value (virus) is given as “possessing anti-viral activity”.
Work on `Nc1nc2c(ncn2COCCO)c(=O)[nH]1` [ACG, acyclovir, reference compound] yielded an activity at 5 µM [1] of 0.7%, an activity at 5 µM [2] of 85% and an activity at 5 µM (HSV-1 (KOS); [12]) of 6.5%. It also gave an activity at 5 µM (PFA-resistant strains) of 100%, an activity at 5 µM (HSV-1 (CLl0l); [12]) of 4% and an activity at 5 µM [3] of 100%.
For `O=c1[nH]c(=O)n([C@H]2C[C@H](O)[C@@H](CO)O2)cc1/C=C/Br` [BVdU, (bromovinyl) deoxyuridine, reference compound], the activity at 30 µM [1] was 52%, the activity at 30 µM [2] was 0.8% and the activity at 30 µM (HSV-1 (KOS); [13]) was 0.1%. It also gave an activity at 30 µM (HSV-2 (333); Human alphaherpesvirus 2, read-out: plaque-forming units as % of control) of 1.7%, an activity at 30 µM (HSV-1 (CLl0l); [13]) of 0.4% and an activity at 30 µM [3] of 3.7%.
In the case of `O=c1ncc(Br)cn1[C@H]1C[C@H](O)[C@@H](CO)O1` [BrPdR, 1-(2-Deoxy-β-D-ribofuranosyl)-5-(bromo)-2-pyrimidinone], the activity at 100 µM (HSV-1 (KOS); Human alphaherpesvirus 1, 100 μM, read-out: plaque-forming units as % of control) is reported as 0.6%, the activity at 100 µM (HSV-2 (333); Human alphaherpesvirus 2, 100 μM, read-out: plaque-forming units as % of control) is reported as 4.5% and the “antiherpes / anti-viral activity (words)” value [4] is reported as “significant antiherpes activities”. The activity at 100 µM (HSV-2 (CEU-G)) was 7.1%.
For `Nc1nc2c(ncn2COC(CO)CO)c(=O)[nH]1` [DHPG, Dihydroxy propoxymethyl guanine, reference compound], the Survivors/Total (HSV-2 (Strain 333) [5]; 40 mg/kg oral, 2 × 21/2) was 20/20, the percent survival (HSV-2 (Strain 333) [5]; 40 mg/kg oral, 2 × 21/2) was 100% and the Survivors/Total (HSV-2 (Strain 333) [5]; [14]) was 5/5. For the same molecule, the percent survival (HSV-2 (Strain 333) [5]; [14]) was 100%, the “Mean Survival Time” value (HSV-2 (Strain 333) [5]; 40 mg/kg oral, 2 × 21/2, control 9.8 ± 1.3) was over 45 days and the “Mean Survival Time” value (HSV-2 (Strain 333) [5]; 40 mg/kg oral, 2 × 21/2, control 10.6 ± 2.1) was over 45 days. The Survivors/Total (HSV-2 (Strain 333) [5]; [15]) was 2/5, the percent survival (HSV-2 (Strain 333) [5]; [15]) was 40% and the “Mean Survival Time (days), of the mice that died” value (HSV-2 (Strain 333) [5]; 40 mg/kg oral, 2 × 21/2, innoculation dose 1 × 10^6 PFU, control 10.0 ± 1.2) was 20.0 ± 7.0 days. The “% ILS” value (HSV-2 (Strain 333) [5]; [15]) was 200%.
With `C#Cc1cnc(=O)n([C@H]2C[C@H](O)[C@@H](CO)O2)c1` [EPdR] the Survivors/Total (HSV-2 (Strain 333) [5]; 100 mg/kg IP, 1 × 5) was 1/5, the percent survival (HSV-2 (Strain 333) [5]; 100 mg/kg IP, 1 × 5) was 20% and the “Mean Survival Time (days), of the mice that died” value (HSV-2 (Strain 333) [5]; 100 mg/kg IP, 1 × 5, control 9.6 ± 1.1) was 9.0 ± 0.8 days. For the same molecule, the “% ILS” value (HSV-2 (Strain 333) [5]; 100 mg/kg IP, 1 × 5) was 94%.
For `O=c1ncc(F)cn1[C@H]1C[C@H](O)[C@@H](CO)O1` [FPdR, 1-(2-Deoxy-β-D-ribofuranosyl)-5-fluoro-2-pyrimidinone], the “toxicity to the host cell versus virus” value (host cell) is given as “more toxic to the host cell than to the virus”, the “toxicity against the host cells” value [6] is given as “significantly greater than IPdR” and the “toxicity against the host cells” value ([6]; listed as 5-fluoro deoxyriboside) is given as “more toxic to the host than to the virus”. It also gave an activity at 72 h, 1 µM ([7]; 1.0 μm, read-out: % Growth) of 102%, an activity at 72 h, 10 µM ([7]; 10 μm, read-out: % Growth) of 84% and an activity at 72 h, 25 µM ([7]; 25 μm, read-out: % Growth) of 49%. For the same molecule, the activity at 72 h, 50 µM ([7]; 50 μm, read-out: % Growth) was 21%, the IC50 at 72 h ([7]; cytotoxicity, read-out: ID50) was 25 µM and the “anti-viral activity” value (virus) was “exhibiting anti-viral activity”. The “antiviral activity, comparison of IPdR and FPdR” value (HSV-2 (strain 333) [8]) was “comparable in antiviral activity” and the inhibition at 100 µM (HSV-2 (strain 333) [8]; Human alphaherpesvirus 2, Vero, 100 μM, 48 hours) was 50.5%.
For `O=c1[nH]c(=O)n([C@H]2C[C@H](O)[C@@H](CO)O2)cc1I` [idoxuridine, 5-iodo-2'-deoxyuridine], the “toxicities upon systemic administration” value (bone marrow) is given as “bone marrow depression”, the “disappearance of most of the active form from the blood” value [9] is given as “about thirty” and the “response of herpatic lesions of the skin” value [10] is given as “do not respond”. The “inactivation by nucleotidases” value (nucleotidases) was “rapidly inactivated by nucleotidases”.
